The text below walks through data of US6160004A, “C-10 carbon-substituted artemisinin-like trioxane compounds having antimalarial, antiproliferative and antitumor activities” (priority 1998, dated 2000).

Molecules are shown by their SMILES. A value given as a limit tells only on which side of the number the result lay.

In data set [1] the test system is T-47D. Kind of data set: NCI 60 cell line panel screening assay (SRB), T-47D. As to conditions: Homo sapiens, T47D, 48 h, read-out: Log10 GI50 (converted).
The subject of data set [2] is BT-549. The experiment in a line: cells. The settings on record: Homo sapiens, BT-549, breast cancer, 48 h. The data set is classed as cell-based.
For data set [3], the system named is UACC-257. The experiment in a line: cells. The format is cell-based. As to conditions: Homo sapiens, UACC-257, 48 h; read-out: Log10 TGI (converted).
Data set [4] relates to 60 cell line panel. Kind of data set: NCI 60 cell line panel, whole panel. The settings on record: panel.
The test system of data set [5] is MOLT-4. The settings on record: MOLT-4, FIG. 6.
The test system of data set [6] is SW-620. The experiment in a line: NCI 60 cell line panel screening assay (SRB), SW-620. The data set is classed as cell-based. The settings on record: Homo sapiens; SW-620, colon cancer, 48 h; read-out: Log10 TGI.
Data set [7] concerns MCF7/ADR-RES. The experiment in a line: cells. The format is cell-based. As to conditions: Homo sapiens; MCF7/ADR-RES, breast cancer, 48 h; read-out: Log10 TGI.
Data set [8] concerns SN12C. Kind of data set: NCI 60 cell line panel screening assay (SRB), SN12C. As to conditions: Homo sapiens, 48 h, read-out: Log10 TGI. The data set is classed as cell-based.
The test system of data set [9] is NCI-H322M. Kind of data set: cells. The settings on record: Homo sapiens, 48 h, read-out: Log10 TGI.
For data set [10], the system named is OVCAR-5. The experiment in a line: cells. The format is cell-based. The settings on record: Homo sapiens; OVCAR-5, ovarian cancer, 48 h; read-out: Log10 TGI (converted).
Data set [11] has as its system MDA-N. The experiment in a line: NCI 60 cell line panel screening assay (SRB), MDA-N. The format is cell-based. The settings on record: Homo sapiens, breast cancer, 48 h, read-out: Log10 GI50 (converted).
In data set [12] the test system is RPMI-8226. The experiment in a line: NCI 60 cell line panel screening assay (SRB), RPMI-8226. The data set is classed as cell-based. As to conditions: Homo sapiens, RPMI-8226, leukemia, 48 h.
For data set [13], the system named is CCRF-CEM. The experiment in a line: cells. The format is cell-based. The settings on record: Homo sapiens, leukemia, 48 h, read-out: Log10 TGI.
In data set [14] the test system is HL-60(TB). Kind of data set: cells. As to conditions: Homo sapiens, HL-60, 48 h, read-out: Log10 TGI. The data set is classed as cell-based.
In data set [15] the test system is OVCAR-3. The experiment in a line: cells. As to conditions: Homo sapiens; OVCAR-3, ovarian cancer, 48 h; read-out: Log10 TGI (converted). The format is cell-based.
The test system of data set [16] is SR. The experiment in a line: cells. The data set is classed as cell-based. As to conditions: Homo sapiens, leukemia, 48 h, read-out: Log10 TGI.
Data set [17] concerns MOLT-4. The experiment in a line: cells. As to conditions: Homo sapiens, MOLT-4, 48 h.
The test system of data set [18] is 786-0. Kind of data set: cells. The settings on record: Homo sapiens; 786-0, renal cancer, 48 h; read-out: Log10 TGI. The data set is classed as cell-based.
The subject of data set [19] is MDA-MB435. Kind of data set: NCI 60 cell line panel screening assay (SRB), MDA-MB435. The format is cell-based. As to conditions: Homo sapiens, MDA-MB-435; printed MDA-MBA35, breast cancer, 48 h; read-out: Log10 GI50 (converted).
Data set [20] concerns HOP-62. Kind of data set: cells. The format is cell-based. As to conditions: Homo sapiens; HOP-62, non-small cell lung cancer, 48 h; read-out: Log10 TGI (converted).
Data set [21] concerns KM12. The experiment in a line: cells. The format is cell-based. The settings on record: Homo sapiens; KM12, colon cancer, 48 h; read-out: Log10 TGI.
The subject of data set [22] is SNB-19. Kind of data set: cells. The format is cell-based. As to conditions: Homo sapiens; SNB-19, CNS cancer, 48 h; read-out: Log10 TGI.
Data set [23] has as its system HT29. The experiment in a line: cells. The data set is classed as cell-based. As to conditions: Homo sapiens, HT-29; HT29, colon cancer, 48 h; read-out: Log10 GI50 (converted).
Data set [24] concerns PC-3. Kind of data set: cells. The format is cell-based. The settings on record: Homo sapiens; PC-3, prostate cancer, 48 h; read-out: Log10 TGI.
Data set [25] relates to OVCAR-8. Kind of data set: cells. The format is cell-based. As to conditions: Homo sapiens; OVCAR-8, ovarian cancer, 48 h; read-out: Log10 GI50 (converted).
Data set [26] concerns U251. Kind of data set: cells. The data set is classed as cell-based. The settings on record: Homo sapiens, U-251; U251, CNS cancer, 48 h; read-out: Log10 TGI (converted).
For data set [27], the system named is K-562. Kind of data set: cells. The format is cell-based. The settings on record: Homo sapiens, K562; K-562, leukemia, 48 h; read-out: Log10 TGI (converted).
In data set [28] the test system is HCT-15. The experiment in a line: cells. The data set is classed as cell-based. The settings on record: Homo sapiens, HCT-15, colon cancer, 48 h.
For data set [29], the system named is NCI-H460. Kind of data set: cells. As to conditions: Homo sapiens, NCI-H460, non-small cell lung cancer, 48 h. The data set is classed as cell-based.
For data set [30], the system named is M14. The experiment in a line: NCI 60 cell line panel screening assay (SRB), M14. As to conditions: Homo sapiens, M14, 48 h, read-out: Log10 TGI.
Data set [31] deals with NCI-H522. The experiment in a line: cells. The format is cell-based. As to conditions: Homo sapiens; NCI-H522, non-small cell lung cancer, 48 h; read-out: Log10 TGI (converted).
Data set [32] has as its system LOX IMVI. The experiment in a line: cells. As to conditions: Homo sapiens, melanoma, 48 h, read-out: Log10 TGI (converted). The data set is classed as cell-based.
Data set [33] has as its system MDA-MB231/ATCC. Kind of data set: cells. As to conditions: Homo sapiens, MDA-MB-231, breast cancer, 48 h, read-out: Log10 TGI (converted). The data set is classed as cell-based.
Data set [34] concerns DU-145. Kind of data set: cells. The format is cell-based. As to conditions: Homo sapiens, DU-145, 48 h; read-out: Log10 TGI.
In data set [35] the test system is MALME-3M. The experiment in a line: cells. The data set is classed as cell-based. As to conditions: Homo sapiens, Malme-3M, 48 h, read-out: Log10 TGI.
Data set [36] concerns IGROVI. Kind of data set: NCI 60 cell line panel screening assay (SRB), IGROVI. The format is cell-based. The settings on record: 48 h, read-out: Log10 TGI.
The test system of data set [37] is OVCAR-4. Kind of data set: cells. The data set is classed as cell-based. As to conditions: Homo sapiens, OVCAR-4, 48 h.
Data set [38] deals with HCT-116. Kind of data set: cells. The format is cell-based. As to conditions: Homo sapiens, HCT-116, 48 h.
For data set [39] the following is noted: rat liver microsomes; cited from earlier work.
In data set [40] the test system is PE cells. The experiment in a line: Viability by trypan blue exclusion. The format is cell-based, murine (SENCAR mice). As to conditions: 96 hours.
The conditions of data set [41]: cited from earlier work.
[42] abbreviates: read-out: Log10 GI50 (converted).
Setting [43] is: read-out: Log10 TGI (converted).

For `CC(=O)O[C@H]1C(=O)[C@@]2(C)[C@H]([C@H](OC(=O)c3ccccc3)[C@]3(O)C[C@H](OC(=O)[C@H](O)[C@@H](NC(=O)c4ccccc4)c4ccccc4)C(C)=C1C3(C)C)[C@]1(OC(C)=O)CO[C@@H]1C[C@@H]2O` [Paclitaxel, reference compound], the GI50 in data set [1] was 0.000155 µM; in data set [2] (setting [42]) it was 0.00049 µM; in data set [11] it was below 0.1 pM; in data set [12] (setting [42]), below 0.1 pM; in [19], below 0.1 pM; in [23] it was below 0.1 pM. For the same compound, the GI50 in [25] was 0.0178 nM; in data set [28] (setting [42]) it was 0.427 µM; in data set [29] (setting [42]), below 0.1 pM; in data set [37] (setting [42]), 10 µM; in data set [38] (setting [42]), below 0.1 pM. The IC (TGI) in data set [2] (setting [43]) is 0.479 µM; in data set [3] it was 30.2 µM; in data set [6], above 100 µM; in [7] it was above 100 µM; in data set [8], 51.3 µM; in data set [9], 34.7 µM. Besides, the IC (TGI) in data set [10] was 12 µM; in [12] (read-out: Log10 TGI), above 100 µM; in data set [13] it was above 100 µM; in data set [14] it was above 29.5 µM; in data set [15], 28.2 µM; in data set [16], above 100 µM. Besides, the IC (TGI) was above 100 µM in [17] (read-out: Log10 TGI); above 100 µM in data set [18]; 15.8 µM in data set [20]; 43.7 µM in data set [21]; above 100 µM in [22]; above 100 µM in data set [24]. Besides, the IC (TGI) in data set [26] was 47.9 µM; in [27], above 100 µM; in data set [28] (read-out: Log10 TGI) it was above 100 µM; in [29] (setting [43]) it was 12 µM; in data set [30], 24 µM; in data set [31], 6.31 pM. The IC (TGI) was 22.4 µM in [32]; 14.5 µM in [33]; above 100 µM in data set [34]; 34.7 µM in data set [35]; 64.6 µM in [36]; 64.6 µM in data set [37] (read-out: Log10 TGI). For the same compound, the IC (TGI) in [38] (setting [43]) was 15.1 µM. Also, in data set [4], the “Delta of Log10 LC50” value is given as -4.06. The “Delta of Log10 TGI” value in [4] is -4.54. The “Range of Log10 TGI” value in data set [4] is reported as 7.20. The “concentration for cytostasis (PG 0)” value in data set [5] is recorded as “greater than 10^-4 M”. Further, the CC50 in data set [17] (read-out: Log10 LC50 (converted)) was above 100 µM.

In the case of `CCO[C@H]1O[C@@H]2O[C@@]3(C)CC[C@H]4[C@H](C)CC[C@@H]([C@H]1C)[C@@]24OO3` [arteether], the conversion into dihydroartemisinin entry in data set [39] was “rapidly converted”.

For `C=C1/C(=C\C=C2/CCC[C@]3(C)[C@@H]([C@H](C)CCCC(C)(C)O)CC[C@@H]23)C[C@@H](O)C[C@@H]1O` [calcitriol, 1α, 25-dihydroxyvitamin D3], the “viability of treated cells” value in data set [40] was “identical to control cells”.

With `C[C@@H]1CC[C@H]2[C@@H](C)C(O)O[C@@H]3O[C@@]4(C)CC[C@@H]1[C@]32OO4` (some centres unmarked) [dihydroartemisinin], in [41], the half-life in plasma entry is listed as “less than two”.
